Experimental data: US7985751B2, “Piperazine derivatives” (M's Science Corporation, priority 2005, dated 2011)
pIC50: −log10 of the molar value. Where a name gives a salt, the structure may show the parent alone.

Tests used:
[1] = test system: sigma receptor-mediated neck dystonia in rats; details: microinjection, Nakazawa M et al 1999; cited from earlier work
[2] = target: T1, σ1 receptors (Homo sapiens, UniProt Q99720); experiment: σ1 receptor binding assay ((+)-[3H]pentazocine displacement, HEK-293 cell membranes); details: for affinity for sigma receptors, in particular sigma-1 receptors: result in words
T1 construct: incubating 50 μg of HEK-293 cell membranes with 10 nM (+)-[^3H]-pentazocine; endogenous in cells; host or cells: HEK-293
Experimental: (§1) Sigma 1 (σ1) and sigma 2 (σ2) receptor binding assays are carried out in membranes from HEK-293 (Human Embryonic Kidney) cells.
(§2) Confluent HEK-293 cells are harvested in PBS/5 mM EDTA. They are centrifuged at 2000 rpm for 5 min and then washed two times in PBS. Cells are homogenized in 20 mM Tris-HCL (pH=7.5) containing 5 mM EDTA, 0.5 mM PMSF and 0.5 μg/ml leupeptin using a Dounce homogenizer and sonicated for 5 minutes.
Nuclear debris and intact cells are removed by centrifugation at 3000 rpm for 10 minutes at 4° C. The supernatant is centrifuged at 12000 rpm for 30 minutes and the resulting pellet is resuspended in 25 mM Tris-HCL (pH=7.5), 25 mM Mg2Cl, 10% sucrose containing 0.5 mM PMSF, 2 mM AEBSF, 1 mM EDTA, 130 μM bestatin, 14 μM E-64, 1 μM leupeptin, and 0.3 mM aprotinin.
Proteins are determined using the Bio Rad Protein Assay Dye Reagent and the membranes are aliquoted and frozen at −80° C.
The binding assays are performed in 96-well plates.
σ1 receptors are labeled using the σ1 selective probe (+)-[^3H] Pentazocine (Bowen W D et al, Mol Neuropharmacol 3, 117-126, 1993).
Total binding is determined by incubating 50 μg of HEK-293 cell membranes with 10 nM (+)-[^3H]-pentazocine (Perkin-Elmer, 35 Ci/mmol) and assay buffer (50 mM Tris-HCl, pH=8.3) in a total volume of 200 μl. Non specific binding is determined in the presence of 10 μM unlabeled pentazocine. For competition experiments, 50 μl of displacing compound is added at 8 different concentrations. Incubations are carried out for 120 min at 37° C. Assays are terminated by dilution with ice-cold 10 mM Tris-HCl, pH=8.3 and vacuum filtration through glass fibers using a Skatron cell harvester from Molecular Devices. The filters are washed three times and the membrane-bound radioactivity is determined in a Microbeta scintillation counter.
Filters are soaked in 0.5% polyethyleneimine for 1 hour before use.
(§3) Specific binding is determined by subtraction of non specific binding from total binding. […]

[3] = target: T2, σ2 receptors (Homo sapiens, UniProt Q5BJF2); experiment: σ2 receptor binding assay ([3H]DTG displacement with σ1 masked by pentazocine, HEK-293 cell membranes); details: σ1 versus σ2 binding, result in words
T2 construct: incubating 50 μg of HEK-293 cell membranes with 10 nM [^3H]-DTG; endogenous in cells; host or cells: HEK-293
Experimental: as §1, §2
Nuclear debris and intact cells are removed by centrifugation at 3000 rpm for 10 minutes at 4° C. […]
Proteins are determined using the Bio Rad Protein Assay Dye Reagent and the membranes are aliquoted and frozen at −80° C. […]
Total binding is determined by incubating 50 μg of HEK-293 cell membranes with 10 nM [^3H]-DTG (Perkin-Elmer, 58 Ci/mmol) in the presence of 10 μM pentazocine and assay buffer (50 mM Tris-HCl, pH=8.3) in a total volume of 200 μl. Non specific binding is determined in the presence of 10 μM unlabeled DTG. […] The filters are washed three times and the membrane-bound radioactivity is determined in a Microbeta scintillation counter. […]
as §3

T1 sequence (Q99720 whole entry): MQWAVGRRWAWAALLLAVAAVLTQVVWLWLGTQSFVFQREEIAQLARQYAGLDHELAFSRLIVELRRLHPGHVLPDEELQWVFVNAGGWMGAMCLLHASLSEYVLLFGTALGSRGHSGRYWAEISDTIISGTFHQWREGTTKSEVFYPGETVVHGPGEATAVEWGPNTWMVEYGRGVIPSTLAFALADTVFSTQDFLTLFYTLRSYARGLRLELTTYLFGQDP
T2 sequence (Q5BJF2 whole entry): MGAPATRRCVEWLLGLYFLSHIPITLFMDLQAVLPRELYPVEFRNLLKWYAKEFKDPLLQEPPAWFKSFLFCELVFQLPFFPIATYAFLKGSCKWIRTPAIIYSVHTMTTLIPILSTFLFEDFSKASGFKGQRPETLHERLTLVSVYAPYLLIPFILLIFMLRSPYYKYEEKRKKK

Compound	induction of neck dystonia [1]	pIC50 [2]	affinity for sigma receptors, in particular sigma-1 receptors [2]	selectivity for σ1 receptor over σ2 receptor [3]
COc1ccc(CCN2CCN(CCCc3ccccc3)CC2)cc1OC [SA-4503, 1-[2-(3,4-dimethoxyphenyl)ethyl]-4-(3-phenylpropyl)piperazine]	no effect			
Cc1ccccc1NC(=N)Nc1ccccc1C [DTG, 1,3-di-2-tolyl-guanidine]	induced neck dystonia			
COc1cc(CCN2CCN(CCCc3ccccc3)CC2)cc(OC)c1OC.Cl [1-[2-(3,4,5-trimethoxyphenyl)ethyl]-4-(3-phenylpropyl)piperazine hydrochloride]		> 6.52	high affinity	highly selective
Fc1ccccc1CCN1CCN(CCCc2ccccc2)CC1 [Example 4, 1-[2-(2-Fluorophenyl)ethyl]-4-(3-phenylpropyl)piperazine dihydrochloride]			especially good	especially good
